Assay results published in patent US8883801B2, “Substituted pyrazolo[1,5-a]pyrimidines as mTOR inhibitors” (Merck Sharp & Dohme Corp., priority 2010, dated 2014).
Where two headings read alike, the source gives them in different places.

Key:
human mTOR enzyme = human mTOR enzyme (Homo sapiens, UniProt P42345); test: HTRF mTOR enzyme (kinase) assay; format: biochemical; settings: 5 μM ATP, 0.2 μM GST-S6K, read-out: hMTOR IC50
Method: Methods: An HTRF mTOR enzyme assay was developed to assess the compounds' inhibitory activity. The mTOR assay buffer contained 10 mM Hepes (pH 7.4), 50 mM NaCl, […] BSA, 50 mM […], 10 mM MnCl2 and 0.5 mM DTT. […] 20 ng of human mTOR enzyme (<5% pure was preincubated with the compound for 10 minutes followed by the addition of 5 μM ATP and 0.2 μM GST-S6K (Zhang et al., Protein Expression and Purification 46, pp 414-420 (2006)). The reaction was incubated for one hour at 30° C. Anti phospho p70-S6K(Thr389) (˜1.7 ng/well, anti-phospho-p70S6K-cryptate (Pho-p70S6-Kin-K cat#64CUSKAY, from Cisbio)) and anti GST-XL665 (1:1 Ratio with the substrate GST-S6K, anti GST-XL665, cat#61GSTXLB) Cisbio) were added after the reaction was stopped. The plates were read (PHERAstar, BMG) at least 2 hours after adding the anti phospho p70-S6K and the anti GST-XL665.
IC50 DETERMINATIONS: Dose-response curves were plotted from the inhibition data generated, each in duplicate, from 8 point serial dilutions of inhibitory compounds. Concentration of compound was plotted against the HTRF em665/em590 ratio signal. To generate IC50 values, the dose-response curves were fitted to a standard sigmoidal curve and IC50 values were derived by nonlinear regression analysis.

[1] = tested on: mTORC2 activity: phosphorylated AKT Ser473 (pAKT S473) in PC3 cells; test: mTOR target engagement assay, immunofluorescent cell-based, mTORC2 readout; settings: Homo sapiens, PC-3, 1.5 h, 90 min treatment
Method: The target engagement of mTOR kinase inhibitors was evaluated using an immunofluorescent cell-based assay. In this assay, inhibition of mTORC1 activity was measured by the reduction in the level of phosphorylated 4E-BP1Thr37/46 (p4E-BP1 Thr37/46), and inhibition of mTORC2 activity was measured by the reduction of phosphorylated AKTSer473 (pAKT S473).
PC3 cells (prostate tumor cell-line that contains a mutation in the tumor suppressor PTEN, that promotes the phosphorylation and activation of AKT and 4E-BP1) were used in the immunofluorescence assay. PC3 cells were seeded on 384 well plates (black clear bottom, Matrix #4332) overnight. PC3 cells were then treated with 40 μl of the serially diluted test compounds (in 5% fetal bovine serum, F12 medium containing 0.25% DMSO) for ninety minutes at 37° C. The test compound solution was removed, and the plates were washed gently two times with 25 μl phosphate buffered saline (PBS). The cells were fixed by adding 25 μl of Prefer reagent (from Anatech LTD, Cat#414, a glyoxal fixative for fixing proteins within a cell) for sixty minutes followed by three washes with PBS. 5% Goat serum in PBS/0.3% Triton was used to block non-specific binding (60 minutes).
The primary antibodies targeting pAKT S473 and p4E-BP1 Thr37/46 were diluted into PBS/0.3% Triton and incubated with the cells overnight at 4° C. The antibodies targeting pAKTS473 (Cat#4085, Cell signaling) and p4E-BP1 Thr37/46 (Cat#2855, Cell signaling) were used at a 1:100 dilution. Plates were washed three times with PBS/0.1% Tween 20 before adding the secondary antibody at a 1:200 dilution. (goat anti-rabbit containing a fluorescent label, Alexa Fluor 488, Cat#A11008, Invitrogen) in PBS/0.3% Triton for 60 minutes.
Finally, the plates were washed three times with PBS/0.1% Tween 20 and the fluorescent intensity was read using an Analyst HT from Molecular Devices. The fluorescent intensity values from the serially diluted compound treatment group were analyzed using the Xlfit 4 program ([…]) (Formula 205: Y=Bottom+(Top-Bottom)/(1+(IC50/X)^Hillslope) to generate the IC50 value. Where Top is the maximum signal without Compound (+DMSO only) and Bottom represents maximum inhibition. Y is the fluorescence at some compound concentration. The control used to determine the fluorescent intensities for 100% pAKT S473 or 100% phosphorylated p4E-BP1 Thr37/46 were measured from untreated wells that contained only DMSO, instead of test compound.

Sequence of human mTOR enzyme (P42345 1360-2549 limits assumed): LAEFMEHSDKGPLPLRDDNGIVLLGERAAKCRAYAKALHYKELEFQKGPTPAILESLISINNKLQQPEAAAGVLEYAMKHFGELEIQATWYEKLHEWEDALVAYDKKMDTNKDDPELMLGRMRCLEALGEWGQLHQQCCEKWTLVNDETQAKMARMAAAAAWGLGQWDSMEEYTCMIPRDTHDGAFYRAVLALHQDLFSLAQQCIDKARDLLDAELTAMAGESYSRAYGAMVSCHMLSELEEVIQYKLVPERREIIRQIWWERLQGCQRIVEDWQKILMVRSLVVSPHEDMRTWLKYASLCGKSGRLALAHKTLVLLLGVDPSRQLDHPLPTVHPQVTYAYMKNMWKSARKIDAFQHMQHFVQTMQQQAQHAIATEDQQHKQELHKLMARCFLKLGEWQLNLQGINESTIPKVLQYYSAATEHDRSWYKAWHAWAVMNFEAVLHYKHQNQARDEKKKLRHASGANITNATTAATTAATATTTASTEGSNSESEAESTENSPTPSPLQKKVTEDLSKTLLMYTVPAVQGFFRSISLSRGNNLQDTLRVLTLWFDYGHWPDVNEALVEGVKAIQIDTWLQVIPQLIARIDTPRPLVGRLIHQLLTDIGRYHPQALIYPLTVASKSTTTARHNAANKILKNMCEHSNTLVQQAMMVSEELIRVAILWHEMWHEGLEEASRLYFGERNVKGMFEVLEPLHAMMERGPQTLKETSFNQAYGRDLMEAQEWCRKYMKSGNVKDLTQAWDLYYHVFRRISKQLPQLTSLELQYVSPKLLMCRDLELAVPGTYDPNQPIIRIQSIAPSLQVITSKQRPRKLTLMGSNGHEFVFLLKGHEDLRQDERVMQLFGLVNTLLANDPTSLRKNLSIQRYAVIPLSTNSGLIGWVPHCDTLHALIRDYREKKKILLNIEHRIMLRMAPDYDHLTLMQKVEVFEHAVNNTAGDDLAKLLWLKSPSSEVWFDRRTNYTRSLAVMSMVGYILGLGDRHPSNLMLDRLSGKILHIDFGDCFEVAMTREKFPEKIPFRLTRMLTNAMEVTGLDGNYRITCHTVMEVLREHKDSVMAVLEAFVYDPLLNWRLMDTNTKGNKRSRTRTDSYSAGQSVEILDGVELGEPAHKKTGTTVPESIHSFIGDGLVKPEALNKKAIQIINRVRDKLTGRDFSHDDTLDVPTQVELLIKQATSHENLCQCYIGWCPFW

SMILES	IC50 (human mTOR enzyme; rated class) [nM]	IC50 ([1]; rated class) [nM]	IC50 (human mTOR enzyme; numeric value) [nM]	IC50 ([1]; numeric value) [nM]
COCCOC[C@]1(CO)CC[C@H](c2nc3c(-c4ccc(-c5ccccc5)nc4)cnn3c(N)c2Br)CC1 [Compound 168, ((1S,4S)-4-(7-amino-6-bromo-3-(6-phenylpyridin-3-yl)pyrazolo[1,5-a]pyrimidin-5-yl)-1-((2-methoxyethoxy)-methyl)cyclohexyl)-methanol]	1 to 100	1000 to 2000	–	–
C[C@]1(C(=O)O)CC[C@@H](c2nc3c(-c4ccc(-c5ccccc5)nc4)cnn3c(N)c2Br)CC1 [Compound 2, (1S,4S)-4-(7-amino-6-bromo-3-(6-phenylpyridin-3-yl)pyrazolo[1,5-a]pyrimidin-5-yl)-1-methylcyclohexanecarboxylic acid]	1 to 100	2000 to 5000	–	–
COC[C@]1(C(=O)O)CC[C@H](c2nc3c(-c4cnc5ccc(F)cc5c4)cnn3c(N)c2C(C)=O)CC1 [Compound 22, (1R,4R)-4-(6-acetyl-7-amino-3-(6-fluoroquinolin-3-yl)pyrazolo[1,5-a]pyrimidin-5-yl)-1-(methoxymethyl)-cyclohexane-carboxylic acid]	1 to 100	100 to 1000	–	–
COc1ccc(-c2ccc(-c3cnn4c(N)c(C(C)=O)c(C5CCC(O)(CO)CC5)nc34)cn2)cc1C(=O)O (stereo not drawn) [Compound 155, 5-(5-(6-acetyl-7-amino-5-(4-hydroxy-4-(hydroxymethyl)-cyclohexyl)-pyrazolo-[1,5-a]pyrimidin-3-yl)pyridin-2-yl)-2-methoxybenzoic acid]	1 to 100	5000 to 15000	–	–
Nc1c(Br)c([C@H]2CC[C@](O)(CCO)CC2)nc2c(-c3ccc(-c4ccccc4)nc3)cnn12 [Compound 137, (1S,4S)-4-(7-amino-6-bromo-3-(6-phenylpyridin-3-yl)pyrazolo[1,5-a]pyrimidin-5-yl)-1-(2-hydroxyethyl)cyclohexanol]	1 to 100	100 to 1000	–	–
CC(=O)c1c(N)n2ncc(-c3ccc(-c4ccccc4)nc3)c2nc1[C@H]1CC[C@@](OCCN2CCOCC2)(C(=O)O)CC1 [Compound 58, (1R,4R)-4-(6-acetyl-7-amino-3-(6-phenylpyridin-3-yl)pyrazolo[1,5-a]pyrimidin-5-yl)-1-(2-morpholinoethoxy) cyclohexanecarboxylic acid]	1 to 100	100 to 1000	–	–
CO[C@]1(C(=O)O)CC[C@@H](c2nc3c(-c4cnc5ccc(F)cc5c4)cnn3c(N)c2C(C)=O)CC1 [Compound 39, (1R,4R)-4-(6-acetyl-7-amino-3-(6-fluoroquinolin-3-yl)pyrazolo[1,5-a]pyrimidin-5-yl)-1-methoxycyclohexane-carboxylic acid]	1 to 100	100 to 1000	–	–
Nc1c(Br)c(C2CCC(O)(CO)CC2)nc2c(-c3ccc(-c4ccccc4)nc3)cnn12 (stereo not drawn) [Compound 134, 4-(7-amino-6-bromo-3-(6-phenylpyridin-3-yl)pyrazolo[1,5-a]pyrimidin-5-yl)-1-(hydroxymethyl)cyclohexanol]	–	–	7.37	209
COC[C@]1(C(=O)O)CC[C@@H](c2nc3c(-c4cnc5ccc(F)cc5c4)cnn3c(N)c2C(C)=O)CC1 [Compound 23, (1S,4S)-4-(6-acetyl-7-amino-3-(6-fluoroquinolin-3-yl)pyrazolo[1,5-a]pyrimidin-5-yl)-1-(methoxymethyl)-cyclohexane-carboxylic acid]	1 to 100	2000 to 5000	–	–
COCCOC[C@]1(C(=O)O)CC[C@@H](c2nc3c(-c4cnn(-c5ccccc5)c4)cnn3c(N)c2Br)CC1 [Compound 14, (1S,4S)-4-(7-amino-6-bromo-3-(1-phenyl-1H-pyrazol-4-yl)pyrazolo[1,5-a]pyrimidin-5-yl)-1-((2-methoxyethoxy)methyl)cyclohexane-carboxylic acid]	1 to 100	5000 to 15000	–	–
CC(=O)c1c(C2CCC(CO)(CO)CC2)nc2c(-c3ccc(-c4ccccc4)nc3)cnn2c1N [Compound 172, 1-(7-amino-5-(4,4-bis(hydroxymethyl)-cyclohexyl)-3-(6-phenylpyridin-3-yl)pyrazolo[1,5-a]pyrimidin-6-yl)ethanone]	1 to 100	1 to 100	–	–
CC(=O)c1c(N)n2ncc(-c3ccc(-c4ccccc4)nc3)c2nc1[C@H]1CC[C@](F)(C(=O)O)CC1 [Compound 16, (1S,4S)-(6-acetyl-7-amino-3-(6-phenylpyridin-3-yl)pyrazolo[1,5-a]pyrimidin-5-yl)-1-fluorocyclohexane-carboxylic acid]	1 to 100	1000 to 2000	–	–
COCC1(CO)CCC(c2nc3c(-c4ccc(-c5ccccc5)nc4)cnn3c(N)c2C(C)=O)CC1 (stereo not drawn) [Compound 170, 1-(7-amino-5-(4-(hydroxymethyl)-4-(methoxymethyl)-cyclohexyl)-3-(6-phenylpyridin-3-yl)pyrazolo[1,5-a]pyrimidin-6-yl)ethanone]	1 to 100	1000 to 2000	–	–
Nc1c(Br)c([C@H]2CC[C@@](F)(C(=O)O)CC2)nc2c(-c3ccc(-c4ccccc4)nc3)cnn12 [Compound 4, (1R,4R)-4-(7-amino-6-bromo-3-(6-phenylpyridin-3-yl)pyrazolo[1,5-a]pyrimidin-5-yl)-1-fluorocyclohexane-carboxylic acid]	1 to 100	100 to 1000	–	–
COCCOC[C@]1(C(=O)O)CC[C@H](c2nc3c(-c4cnn(-c5ccccc5)c4)cnn3c(N)c2Br)CC1 [Compound 13, (1R,4R)-4-(7-amino-6-bromo-3-(1-phenyl-1H-pyrazol-4-yl)pyrazolo[1,5-a]pyrimidin-5-yl)-1-((2-methoxyethoxy)methyl)cyclohexane-carboxylic acid]	1 to 100	5000 to 15000	–	–
COCC1(O)CCC(c2nc3c(-c4cnc5ccc(F)cc5c4)cnn3c(N)c2Br)CC1 (stereo not drawn) [Compound 165, 4-(7-amino-6-bromo-3-(6-fluoroquinolin-3-yl)pyrazolo[1,5-a]pyrimidin-5-yl)-1-(methoxymethyl)cyclohexanol]	1 to 100	1000 to 2000	–	–
CC(=O)c1c(N)n2ncc(-c3ccc(-c4ccccc4)nc3)c2nc1[C@H]1CC[C@](O)(CCO)CC1 [Compound 159, 1-(7-amino-5-((1S,4S)-4-hydroxy-4-(2-hydroxyethyl)-cyclohexyl)-3-(6-phenylpyridin-3-yl)pyrazolo[1,5-a]pyrimidin-6-yl)ethanone]	1 to 100	1 to 100	–	–
COC1(CO)CCC(c2nc3c(-c4ccc(-c5ccccc5)nc4)cnn3c(N)c2Br)CC1 (stereo not drawn) [Compound 82, (4-(7-amino-6-bromo-3-(6-phenylpyridin-3-yl)pyrazolo[1,5-a]pyrimidin-5-yl)-1-methoxycyclohexyl)methanol]	1 to 100	100 to 1000	–	–
COCC1(CO)CCC(c2nc3c(-c4cnn(-c5ccccc5)c4)cnn3c(N)c2Br)CC1 (stereo not drawn) [Compound 167, (4-(7-amino-6-bromo-3-(1-phenyl-1H-pyrazol-4-yl)pyrazolo[1,5-a]pyrimidin-5-yl)-1-(methoxymethyl)-cyclohexyl)methanol]	1 to 100	–	–	–
COCCO[C@]1(C(=O)c2nnc[nH]2)CC[C@H](c2nc3c(-c4cnn(-c5ccccc5)c4)cnn3c(N)c2S(C)(=O)=O)CC1 [Compound 123, ((1S,4S)-4-(7-amino-6-(methylsulfonyl)-3-(1-phenyl-1H-pyrazol-4-yl)pyrazolo[1,5-a]pyrimidin-5-yl)-1-(2-methoxyethoxy)cyclohexyl)(4H-1,2,4-triazol-3-yl)methanone]	1 to 100	–	–	–
COCCO[C@]1(C(=O)O)CC[C@H](c2nc3c(-c4ccc(-c5nccs5)nc4)cnn3c(N)c2C(C)=O)CC1 [Compound 59]	1 to 100	–	–	–
